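Growth conditions: 96-well plates. Treatment: test compound, 48 hours, 5 concentrations. Analysis: linear interpolation between bracketing concentrations; unreached endpoints set to highest concentration. At the GI50, growth is halved.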 Active and inactive are the calls of the source. No stated cut-off is given here; in the data, active = GI50 up to about 1.1 µM and inactive = higher.
Legend:
Assay in all cases: NCI-60 cell line screen, 48 h
RPMI-8226 = system: RPMI-8226
HT-29 = system: HT-29
SNB-75 = system: SNB-75
MDA-N = system: MDA-N
NCI-H23 = system: NCI-H23
OVCAR-3 = system: OVCAR-3
SF-295 = system: SF-295
SK-MEL-2 = system: SK-MEL-2
EKVX = system: EKVX
T47D = system: T47D
HCC 2998 = system: HCC 2998
SR = system: SR
A498 = system: A498
NCI-H226 = system: NCI-H226
OVCAR-8 = system: OVCAR-8
CCRF-CEM = system: CCRF-CEM
HCT-116 = system: HCT-116
Hs-578T = system: Hs-578T
A549 = system: A549
M14 = system: M14

Measured: GI50

N#C/C(N)=C(C#N)/N=C/Nc1ccc(N)cc1
inactive: RPMI-8226 > 100 µM | HT-29 > 100 µM | SNB-75 > 100 µM | MDA-N > 100 µM | NCI-H23 > 100 µM | OVCAR-3 > 100 µM | SF-295 > 100 µM | SK-MEL-2 > 100 µM | EKVX > 100 µM | T47D > 100 µM | HCC 2998 > 100 µM | SR > 100 µM | A498 > 100 µM | NCI-H226 > 100 µM | OVCAR-8 > 100 µM | CCRF-CEM 44.3 µM | HCT-116 > 100 µM | Hs-578T 95.3 µM | A549 > 100 µM | M14 > 100 µM

COC(=O)C1=CO[C@@H](OC2OC(CO)C(O)C(O)C2O)[C@@H]2[C@H](C)[C@@H](O)[C@@H](O)[C@]12O (stereo not given in full)
inactive: RPMI-8226 > 100 µM | HT-29 > 100 µM | SNB-75 33 µM | MDA-N > 100 µM | NCI-H23 > 100 µM | OVCAR-3 > 100 µM | SF-295 > 100 µM | SK-MEL-2 > 100 µM | EKVX > 100 µM | T47D > 100 µM | HCC 2998 > 100 µM | SR > 100 µM | A498 > 100 µM | NCI-H226 > 100 µM | OVCAR-8 > 100 µM | CCRF-CEM > 10 µM | HCT-116 > 100 µM | Hs-578T > 100 µM | A549 > 100 µM | M14 > 100 µM

O=C(/C=C/c1ccc(OCCSCCCCCCCCCCSCCOc2ccc(/C=C/C(=O)c3ccc(Cl)cc3)cc2)cc1)c1ccc(Cl)cc1
inactive: RPMI-8226 > 100 µM | HT-29 > 100 µM | SNB-75 30.8 µM | MDA-N > 100 µM | NCI-H23 > 94.6 µM | OVCAR-3 > 100 µM | SF-295 65.8 µM | SK-MEL-2 61.8 µM | EKVX > 100 µM | T47D > 100 µM | HCC 2998 > 100 µM | SR > 92.7 µM | A498 > 100 µM | NCI-H226 > 76.2 µM | OVCAR-8 > 100 µM | CCRF-CEM > 100 µM | HCT-116 > 100 µM | Hs-578T > 78.5 µM | A549 > 100 µM | M14 > 100 µM
